Measurements published in US8129398B2 (priority 2008, dated 2012).

biological target: T1, HIV-integrase (Human immunodeficiency virus type 1 group M subtype B, UniProt P12497); test: HIV-Integrase Inhibition Activity (SPA bead integration assay with P33 labeled target DNA); type: biochemical; details: recombinant integrase, class symbols; read-out: in vitro activity
T1 construct: Recombinant integrase (0.26 ng) was incubated with the beads
Summary of the method: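 Biotinylated substrate DNA on streptavidin SPA beads loaded with recombinant integrase (90 min, 37° C), washed, then inhibitor plus 0.1 fmol P33-labeled target DNA added. Reaction stopped with 10 mM EDTA; integration measured as CPM by scintillation, giving IC50 ranks.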

`CC(CCc1ccccc1)NC(=O)c1nc2n(c(=O)c1O)CC1CCC2(NC(=O)C(=O)N(C)C)CC1` (stereo not drawn) [Example 339] and `CN(C)C(=O)C(=O)NC12CCC(CC1)Cn1c2nc(C(=O)NCCc2ccccc2)c(O)c1=O` [Example 343] fall in the same range of IC50: 10 to 100 nM for the first, 10 to 100 nM for the second.

First: CN(C)C(=O)C(=O)NC12CCC(CC1)Cn1c2nc(C(=O)NCC(c2ccccc2)c2ccccc2)c(O)c1=O [Example 340]
Second: CN(C)C(=O)C(=O)NC12CCC(CC1)Cn1c2nc(C(=O)NCc2ccccc2-c2ccccc2)c(O)c1=O [Example 387]
The IC50 of the first is higher: > 100 nM for the first, < 10 nM for the second. The second is the more potent here.

`CC(C)CNC(=O)c1nc2n(c(=O)c1O)CC1CCC2(NC(=O)C(=O)N(C)C)CC1` [Example 341] and `CN(C)C(=O)C(=O)NC12CCC(CC1)Cn1c2nc(C(=O)NCCC(C)(C)C)c(O)c1=O` [Example 348] cannot be ordered by IC50: > 100 nM for the first, > 100 nM for the second.

First: CN(C)C(=O)C(=O)NC12CCC(CC1)Cn1c2nc(C(=O)NCCNc2ccccc2)c(O)c1=O [Example 342]
Second: CN(C)C(=O)C(=O)NC12CCC(CC1)Cn1c2nc(C(=O)NCCCc2ccccc2)c(O)c1=O [Example 349]
The IC50 of the first is higher: 10 to 100 nM for the first, < 10 nM for the second.

First: CN(C)C(=O)C(=O)NC12CCC(CC1)Cn1c2nc(C(=O)NCCc2ccccc2Cl)c(O)c1=O [Example 344]
Second: CN(C)C(=O)C(=O)NC12CCC(CC1)Cn1c2nc(C(=O)NCc2ccccc2F)c(O)c1=O [Example 367]
The IC50 of the first is higher: 10 to 100 nM for the first, < 10 nM for the second.

Compared with `CN(C)C(=O)C(=O)NC12CCC(CC1)Cn1c2nc(C(=O)NCCc2ccc(Cl)cc2)c(O)c1=O` [Example 345], `CN(C)C(=O)C(=O)NC12CCC(CC1)Cn1c2nc(C(=O)NCc2ccc(Cl)cc2)c(O)c1=O` [Example 374] is lower in IC50: 10 to 100 nM for the first, < 10 nM for the second.

First: COc1ccc(CCNC(=O)c2nc3n(c(=O)c2O)CC2CCC3(NC(=O)C(=O)N(C)C)CC2)cc1 [Example 346]
Second: COc1ccc(CNC(=O)c2nc3n(c(=O)c2O)CC2CCC3(NC(=O)C(=O)N(C)C)CC2)cc1 [Example 375]
The IC50 of the first is higher: > 100 nM for the first, < 10 nM for the second. The second is the more potent here.

First: CN(C)C(=O)C(=O)NC12CCC(CC1)Cn1c2nc(C(=O)NCCc2ccc(O)cc2)c(O)c1=O [Example 347]
Second: CN(C)C(=O)C(=O)NC12CCC(CC1)Cn1c2nc(C(=O)NCc2ccc(O)cc2)c(O)c1=O [Example 390]
The IC50 of the first is higher: > 100 nM for the first, 10 to 100 nM for the second. The second is the more potent here.

First: CN(C)C(=O)C(=O)NC12CCC(CC1)Cn1c2nc(C(=O)NCCCn2ccnc2)c(O)c1=O [Example 350]
Second: CN(C)C(=O)C(=O)NC12CCC(CC1)Cn1c2nc(C(=O)NCCc2cccs2)c(O)c1=O [Example 354]
The IC50 of the first is higher: > 100 nM for the first, 10 to 100 nM for the second.

Going from `CN(C)C(=O)C(=O)NC12CCC(CC1)Cn1c2nc(C(=O)NCCc2ccc(S(N)(=O)=O)cc2)c(O)c1=O` [Example 351] to `CN(C)C(=O)C(=O)NC12CCC(CC1)Cn1c2nc(C(=O)NCc2ccc(S(N)(=O)=O)cc2)c(O)c1=O` [Example 379], the IC50 falls from > 100 nM to < 10 nM.

First: CN(C)C(=O)C(=O)NC12CCC(CC1)Cn1c2nc(C(=O)NCC2CC2)c(O)c1=O [Example 352]
Second: CN(C)C(=O)C(=O)NC12CCC(CC1)Cn1c2nc(C(=O)NCc2cccs2)c(O)c1=O [Example 361]
The IC50 of the first is higher: > 100 nM for the first, < 10 nM for the second.

`CN(C)C(=O)C(=O)NC12CCC(CC1)Cn1c2nc(C(=O)NCCc2cccc(Cl)c2)c(O)c1=O` [Example 353] and `CN(C)C(=O)C(=O)NC12CCC(CC1)Cn1c2nc(C(=O)NCc2cccc(Cl)c2)c(O)c1=O` [Example 380] cannot be ordered by IC50: < 10 nM for the first, < 10 nM for the second.

`CN(C)C(=O)C(=O)NC12CCC(CC1)Cn1c2nc(C(=O)NCCOc2ccccc2)c(O)c1=O` [Example 355] and `CC(NC(=O)c1nc2n(c(=O)c1O)CC1CCC2(NC(=O)C(=O)N(C)C)CC1)c1ccccc1` (stereo not drawn) [Example 366] cannot be ordered by IC50: < 10 nM for the first, < 10 nM for the second.

Compared with `CN(C)C(=O)C(=O)NC12CCC(CC1)Cn1c2nc(C(=O)NC2CCN(Cc3ccccc3)C2)c(O)c1=O` (stereo not drawn) [Example 356], `Cc1ccccc1CNC(=O)c1nc2n(c(=O)c1O)CC1CCC2(NC(=O)C(=O)N(C)C)CC1` [Example 370] is lower in IC50: > 100 nM for the first, < 10 nM for the second. The second is the more potent here.

`CN(C)C(=O)C(=O)NC12CCC(CC1)Cn1c2nc(C(=O)NCCc2ccc(F)cc2)c(O)c1=O` [Example 358] and `CN(C)C(=O)C(=O)NC12CCC(CC1)Cn1c2nc(C(=O)NCc2ccc(N)cc2)c(O)c1=O` [Example 385] fall in the same range of IC50: 10 to 100 nM for the first, 10 to 100 nM for the second.

`CN(C)C(=O)C(=O)NC12CCC(CC1)Cn1c2nc(C(=O)NCc2csc(-c3ccccc3)n2)c(O)c1=O` [Example 359] and `CN(C)C(=O)C(=O)NC12CCC(CC1)Cn1c2nc(C(=O)NCc2cccc(-c3ccccc3)c2)c(O)c1=O` [Example 388] cannot be ordered by IC50: < 10 nM for the first, < 10 nM for the second.

Compared with `CN(C)C(=O)C(=O)NC12CCC(CC1)Cn1c2nc(C(=O)NCc2nc3ccccc3s2)c(O)c1=O` [Example 360], `CN(C)C(=O)C(=O)NC12CCC(CC1)Cn1c2nc(C(=O)NCc2ccccn2)c(O)c1=O` [Example 363] is higher in IC50: < 10 nM for the first, 10 to 100 nM for the second.

`CN(C)C(=O)C(=O)NC12CCC(CC1)Cn1c2nc(C(=O)NCc2ccc3c(c2)OCO3)c(O)c1=O` [Example 362] and `CN(C)C(=O)C(=O)NC12CCC(CC1)Cn1c2nc(C(=O)NCc2ccc(Cl)c(Cl)c2)c(O)c1=O` [Example 372] cannot be ordered by IC50: < 10 nM for the first, < 10 nM for the second.

Compared with `CN(C)C(=O)C(=O)NC12CCC(CC1)Cn1c2nc(C(=O)NCc2cccnc2)c(O)c1=O` [Example 364], `CN(C)C(=O)C(=O)NC12CCC(CC1)Cn1c2nc(C(=O)NCc2ccncc2)c(O)c1=O` [Example 365] is higher in IC50: 10 to 100 nM for the first, > 100 nM for the second.

`CN(C)C(=O)C(=O)NC12CCC(CC1)Cn1c2nc(C(=O)NCc2ccc(Cl)cc2Cl)c(O)c1=O` [Example 368] and `CN(C)C(=O)C(=O)NC12CCC(CC1)Cn1c2nc(C(=O)NCc2cc(Cl)cc(Cl)c2)c(O)c1=O` [Example 383] cannot be ordered by IC50: < 10 nM for the first, < 10 nM for the second.

`COc1ccccc1CNC(=O)c1nc2n(c(=O)c1O)CC1CCC2(NC(=O)C(=O)N(C)C)CC1` [Example 369] and `CN(C)C(=O)C(=O)NC12CCC(CC1)Cn1c2nc(C(=O)NCc2ccccc2OC(F)(F)F)c(O)c1=O` [Example 386] cannot be ordered by IC50: < 10 nM for the first, < 10 nM for the second.

`CN(C)C(=O)C(=O)NC12CCC(CC1)Cn1c2nc(C(=O)NCc2cccc(F)c2)c(O)c1=O` [Example 371] and `COc1cccc(CNC(=O)c2nc3n(c(=O)c2O)CC2CCC3(NC(=O)C(=O)N(C)C)CC2)c1` [Example 373] cannot be ordered by IC50: < 10 nM for the first, < 10 nM for the second.

Compared with `CN(C)C(=O)C(=O)NC12CCC(CC1)Cn1c2nc(C(=O)NCc2ccccc2C(F)(F)F)c(O)c1=O` [Example 377], `COc1cccc(CNC(=O)c2nc3n(c(=O)c2O)CC2CCC3(NC(=O)C(=O)N(C)C)CC2)c1OC` [Example 381] is lower in IC50: 10 to 100 nM for the first, < 10 nM for the second. The second is the more potent here.

`CN(C)C(=O)C(=O)NC12CCC(CC1)Cn1c2nc(C(=O)NCc2ccc(N(C)C)cc2)c(O)c1=O` [Example 378] and `Cc1cnc(CNC(=O)c2nc3n(c(=O)c2O)CC2CCC3(NC(=O)C(=O)N(C)C)CC2)cn1` [Example 389] fall in the same range of IC50: 10 to 100 nM for the first, 10 to 100 nM for the second.

`Cc1cccc(S(=O)(=O)NC23CCC(CC2)Cn2c3nc(C(=O)NCc3ccc(F)cc3)c(O)c2=O)c1` [Example 391] and `O=C(NCc1ccc(F)cc1)c1nc2n(c(=O)c1O)CC1CCC2(NS(=O)(=O)c2ccccc2)CC1` [Example 395] cannot be ordered by IC50: < 10 nM for the first, < 10 nM for the second.

`Cc1oncc1S(=O)(=O)NC12CCC(CC1)Cn1c2nc(C(=O)NCc2ccc(F)cc2)c(O)c1=O` [Example 393] and `CCS(=O)(=O)N1CCCC1C(=O)NC12CCC(CC1)Cn1c2nc(C(=O)NCc2ccc(F)cc2)c(O)c1=O` (stereo not drawn) [Example 403] cannot be ordered by IC50: < 10 nM for the first, < 10 nM for the second.

`CCOC(=O)N1CCCC1C(=O)NC12CCC(CC1)Cn1c2nc(C(=O)NCc2ccc(F)cc2)c(O)c1=O` (stereo not drawn) [Example 397] and `CCCOC(=O)N1CCCC1C(=O)NC12CCC(CC1)Cn1c2nc(C(=O)NCc2ccc(F)cc2)c(O)c1=O` (stereo not drawn) [Example 398] cannot be ordered by IC50: < 10 nM for the first, < 10 nM for the second.

`CC(C)C(=O)N1CCCC1C(=O)NC12CCC(CC1)Cn1c2nc(C(=O)NCc2ccc(F)cc2)c(O)c1=O` (stereo not drawn) [Example 399] and `CC(C)OC(=O)N1CCCC1C(=O)NC12CCC(CC1)Cn1c2nc(C(=O)NCc2ccc(F)cc2)c(O)c1=O` (stereo not drawn) [Example 405] cannot be ordered by IC50: < 10 nM for the first, < 10 nM for the second.

`O=C(NCc1ccc(F)cc1)c1nc2n(c(=O)c1O)CC1CCC2(NC(=O)C2CCCN2C(=O)C2CCC2)CC1` (stereo not drawn) [Example 400] and `O=C(NCc1ccc(F)cc1)c1nc2n(c(=O)c1O)CC1CCC2(NC(=O)C2CCCN2C(=O)C2CC2)CC1` (stereo not drawn) [Example 407] cannot be ordered by IC50: < 10 nM for the first, < 10 nM for the second.

`CNC(=O)N1CCCC1C(=O)NC12CCC(CC1)Cn1c2nc(C(=O)NCc2ccc(F)cc2)c(O)c1=O` (stereo not drawn) [Example 401] and `COC(=O)N1CCCC1C(=O)NC12CCC(CC1)Cn1c2nc(C(=O)NCc2ccc(F)cc2)c(O)c1=O` (stereo not drawn) [Example 406] cannot be ordered by IC50: < 10 nM for the first, < 10 nM for the second.

`CC(C)S(=O)(=O)N1CCCC1C(=O)NC12CCC(CC1)Cn1c2nc(C(=O)NCc2ccc(F)cc2)c(O)c1=O` (stereo not drawn) [Example 402] and `CCCS(=O)(=O)N1CCCC1C(=O)NC12CCC(CC1)Cn1c2nc(C(=O)NCc2ccc(F)cc2)c(O)c1=O` (stereo not drawn) [Example 404] cannot be ordered by IC50: < 10 nM for the first, < 10 nM for the second.

`O=C(NCc1ccc(F)cc1)c1nc2n(c(=O)c1O)CC1CCC2(NC(=O)C2CCCN2S(=O)(=O)C2CCCC2)CC1` (stereo not drawn) [Example 408] and `O=C(NCc1ccc(F)cc1)c1nc2n(c(=O)c1O)CC1CCC2(NC(=O)C2CCCN2S(=O)(=O)c2ncn[nH]2)CC1` (stereo not drawn) [Example 409] cannot be ordered by IC50: < 10 nM for the first, < 10 nM for the second.

`O=C(NCc1ccc(F)cc1)c1nc2n(c(=O)c1O)CC1CCC2(NC(=O)C2CCCN2S(=O)(=O)c2ccco2)CC1` (stereo not drawn) [Example 410] and `Cc1cc(CNC(=O)c2nc3n(c(=O)c2O)CC[C@@H]2CC[C@@]3(NC(=O)C(=O)N(C)C)C2)ccc1F` [Example 415, Ethanediamide, N′-[(8S,11R)-2-[[[(4-fluoro-3-methylphenyl)methyl]amino]carbonyl-7,8,9,10-tetrahydro-3-hydroxy-4-oxo-8,11-methano-4H-pyrimido[1,2-a]azocin-1](6H)-yl]-N,N-dimethyl-] cannot be ordered by IC50: < 10 nM for the first, < 10 nM for the second.
